Assay results as given in US20200055848A1, “FURANONE DERIVATES AND METHODS OF USE THEREOF” (CARNA BIOSCIENCES, INC., priority 2016, published 2020).
Where a name gives a salt, the structure may show the parent alone.

Experiments:
[1] = biological target: T1, human Cdc7/human ASK complex protein (Homo sapiens, UniProt O00311); assay: Cdc7/ASK enzymatic assay; type: biochemical; details: 5 μM ATP; for Cdc7 inhibitory potency (in words): compared with compound 3; for IC50: mean of duplicated assays, read-out: Cdc7 IC50
T1 construct: purchased Carna Biosciences, Inc
T1 sequence (O00311 whole entry): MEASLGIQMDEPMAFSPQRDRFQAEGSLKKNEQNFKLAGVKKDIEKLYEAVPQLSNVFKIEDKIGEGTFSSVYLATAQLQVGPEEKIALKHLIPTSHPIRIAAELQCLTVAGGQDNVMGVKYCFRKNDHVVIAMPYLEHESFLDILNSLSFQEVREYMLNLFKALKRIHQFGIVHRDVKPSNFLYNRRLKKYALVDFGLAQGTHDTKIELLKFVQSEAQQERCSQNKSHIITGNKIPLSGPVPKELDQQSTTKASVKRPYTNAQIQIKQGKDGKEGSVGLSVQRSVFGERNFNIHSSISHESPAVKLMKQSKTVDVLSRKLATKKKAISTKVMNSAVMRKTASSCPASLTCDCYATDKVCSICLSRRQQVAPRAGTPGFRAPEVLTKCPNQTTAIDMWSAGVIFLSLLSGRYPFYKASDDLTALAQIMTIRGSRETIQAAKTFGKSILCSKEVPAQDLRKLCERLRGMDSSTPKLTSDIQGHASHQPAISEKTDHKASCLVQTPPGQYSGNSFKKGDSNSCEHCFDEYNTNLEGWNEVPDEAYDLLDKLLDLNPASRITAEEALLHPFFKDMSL
T1 sequence (Q9UBU7 whole entry partner): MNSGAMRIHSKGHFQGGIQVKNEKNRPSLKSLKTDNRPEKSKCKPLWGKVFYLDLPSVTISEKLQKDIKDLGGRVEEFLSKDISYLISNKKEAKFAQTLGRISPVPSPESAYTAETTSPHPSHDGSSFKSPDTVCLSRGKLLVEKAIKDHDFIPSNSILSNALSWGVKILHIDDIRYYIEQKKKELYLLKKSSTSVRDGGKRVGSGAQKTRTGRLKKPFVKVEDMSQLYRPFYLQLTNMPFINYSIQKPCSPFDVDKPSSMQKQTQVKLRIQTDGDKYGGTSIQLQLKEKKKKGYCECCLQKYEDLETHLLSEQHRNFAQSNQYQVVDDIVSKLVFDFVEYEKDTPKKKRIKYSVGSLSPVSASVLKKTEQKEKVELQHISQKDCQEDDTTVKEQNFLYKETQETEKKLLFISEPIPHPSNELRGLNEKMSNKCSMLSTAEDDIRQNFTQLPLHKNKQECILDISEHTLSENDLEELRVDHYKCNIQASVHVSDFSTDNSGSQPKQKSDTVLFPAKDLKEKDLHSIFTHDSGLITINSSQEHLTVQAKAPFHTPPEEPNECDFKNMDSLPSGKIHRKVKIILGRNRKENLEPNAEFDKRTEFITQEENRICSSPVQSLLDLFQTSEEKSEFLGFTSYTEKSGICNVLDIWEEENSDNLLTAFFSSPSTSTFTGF
Method: Measurement of Cdc7 kinase activity was carried out using MSA assay kit (QuickScout™ Screening Assist Kit, Carna Biosciences, Inc.). Assay buffer (20 mM HEPES, 0.01% Triton X-100™, 2 mM dithiothreitol, pH 7.5) was used to prepare a substrate mixture solution comprising 4 μM of kinase-reaction substrate (FITC-labeled MCM2 peptide), 40 mM MgCl2, and 4 times concentrations of final targeted ATP (5, 100, and 1,000 μM). The enzyme supplied in the kit (human Cdc7/human ASK complex protein) was diluted into the assay buffer to prepare a 7 nM solution (enzyme solution). The compound stock solution was prepared by diluting a 10 mM DMSO solution into the assay buffer (final 4% DMSO). The kinase reaction was performed by mixing of 5 μL of the compound solution, 5 μL of the substrate mixture solution, and 10 μL of the enzyme solution in a 384-well plate. For the pre-incubation assay, the compound solution and the enzyme solution were pre-mixed and incubated at ambient temperature for 30 min before adding into the substrate mixture solution to start enzymatic reaction. After the reaction at 25° C. for 5 hours, 60 μL of the termination buffer (supplied in the kit) was added to stop the reaction. The phosphorylation of substrate was measured using a LabChip EZ Reader II system (Caliper Life Sciences). The percent inhibition (%) by a tested compound was calculated according to the following formula:
Percent inhibition (%)=(1−(C−A)/(B−A))×100
A represents P/(P+S) for a blank well, B represents P/(P+S) for a solvent well, and C represents P/(P+S) for a compound-added well. S: the peak heights of the separated substrate, P: phosphorylated substrate.
The IC50 value of tested compound was calculated by regression analysis of the percent inhibition values versus the (logarithmic) concentration of the tested compound.

[2] = In vitro metabolic stability, mouse liver microsomes; type: in vitro ADME; details: 30 min treatment of mouse liver microsomes
Method: (§1) NADPH regeneration system (13 mM NADP, 33 mM Glucose-6-phospate, 33 mM MgCl2, and 4 U/mL of Glucose-6-phosphate dehydrogenase) and liver microsomes (1 mg/mL of HLM (BD Gentest, lot 18888) or MLM (BD Gentest, lot 31197)) in 0.1 M phosphate buffer (pH 7.4) were pre-incubated separately at 37° C. for 20 min before mixing with 1:4 ratio. 50 μL of the mixed solution was added to 50 μL of the test compound (2 μM) to initiate the reaction at 37° C. (final conc. 1 μM test compound, 0.4 mg/mL liver microsomes, and 1.3 mM NADPH). After 30 min, the reactions were stopped by adding 300 μL of cold acetonitrile. For 0 min samples, ice-cold acetonitrile (with system suitability standard) was treated before mixing the test compound and microsomes. The sample were vortexed well and then centrifuged at 3500 rpm at 15° C. for 20 min. 110 μL of supernatant was mixed with 110 μL of water and quantitated by LC-MS/MS workstation (Shimazu Corp.).

[3] = In vitro metabolic stability, human liver microsomes; type: in vitro ADME; details: 30 min treatment of human liver microsomes
Method: as §1

Row | Compound | Cdc7 inhibitory potency (in words) [1] | IC50 [1] | MLM % (remaining % of parent compound) [2] | HLM % (remaining % of parent compound) [3]
1 | CCOC(=O)C1=C(Nc2ccccc2)SC(=Cc2c[nH]c3ncccc23)C1=O [Compound 4, Ethyl 5-((1H-pyrrolo[2,3-b]pyridin-3-yl)methylene)-4-oxo-2-(phenylamino)-4,5-dihydrothiophene-3-carboxylate] | retention of some potency | > 10000 nM | – | –
2 | CCOC(=O)C1=C(Nc2ccccc2)OC(=Cc2c[nH]c3ncc(Cl)cc23)C1=O [Compound 5, Ethyl 5-((5-chloro-1H-pyrrolo[2,3-b]pyridin-3-yl)methylene)-4-oxo-2-(phenylamino)-4,5-dihydrofuran-3-carboxylate] | – | 44 nM | – | –
3 | CCOC(=O)C1=C(Nc2ccccc2)OC(=Cc2ccc(O)c(C)c2)C1=O [Compound 6, Ethyl 5-(4-hydroxy-3-methylbenzylidene)-4-oxo-2-(phenylamino)-4,5-dihydrofuran-3-carboxylate] | – | 1200 nM | – | –
4 | CCOC(=O)C1=C(Nc2ccccc2)OC(=Cc2ccc3c(c2)OCO3)C1=O [Compound 7, Ethyl 5-(benzo[d][1,3]dioxol-5-ylmethylene)-4-oxo-2-(phenylamino)-4,5-dihydrofuran-3-carboxylate] | – | 3200 nM | – | –
5 | O=C(O)C1=C(Nc2ccccc2)O/C(=C\c2c[nH]c3ncccc23)C1=O [Compound 9, 5-((1H-Pyrrolo[2,3-b]pyridin-3-yl)methylene)-4-oxo-2-(phenylamino)-4,5-dihydrofuran-3-carboxylic acid] | – | 9.9 nM | – | –
6 | NC(=O)C1=C(Nc2ccccc2)O/C(=C\c2c[nH]c3ncccc23)C1=O [Compound 10, 5-((1H-Pyrrolo[2,3-b]pyridin-3-yl)methylene)-4-oxo-2-(phenylamino)-4,5-dihydrofuran-3-carboxamide] | significant decrease in potency | > 10000 nM | – | –
7 | CCNC(=O)C1=C(Nc2ccccc2)O/C(=C\c2c[nH]c3ncccc23)C1=O [Compound 11, 5-((1H-Pyrrolo[2,3-b]pyridin-3-yl)methylene)-N-ethyl-4-oxo-2-(phenylamino)-4,5-dihydrofuran-3-carboxamide] | significant decrease in potency | – | – | –
8 | CCOC(=O)C1=C(Nc2cccc(Cl)c2)OC(=Cc2c[nH]c3ncccc23)C1=O [Compound 14, Ethyl 5-((1H-pyrrolo[2,3-b]pyridin-3-yl)methylene)-2-((3-chlorophenyl)amino)-4-oxo-4,5-dihydrofuran-3-carboxylate] | – | 12 nM | – | –
9 | CCOC(=O)C1=C(Nc2ccc(Cl)cc2)OC(=Cc2c[nH]c3ncccc23)C1=O [Compound 15, Ethyl 5-((1H-pyrrolo[2,3-b]pyridin-3-yl)methylene)-2-((4-chlorophenyl)amino)-4-oxo-4,5-dihydrofuran-3-carboxylate] | – | 6.7 nM | – | –
10 | CCOC(=O)C1=C(Nc2ccccc2OC)OC(=Cc2c[nH]c3ncccc23)C1=O [Compound 16, Ethyl 5-((1H-pyrrolo[2,3-b]pyridin-3-yl)methylene)-2-((2-methoxyphenyl)amino)-4-oxo-4,5-dihydrofuran-3-carboxylate] | – | 12 nM | – | –
11 | CCOC(=O)C1=C(Nc2cccc(OC)c2)OC(=Cc2c[nH]c3ncccc23)C1=O [Compound 17, Ethyl 5-((1H-pyrrolo[2,3-b]pyridin-3-yl)methylene)-2-((3-methoxyphenyl)amino)-4-oxo-4,5-dihydrofuran-3-carboxylate] | – | 29 nM | – | –
12 | CCOC(=O)C1=C(Nc2ccc(OC)cc2)OC(=Cc2c[nH]c3ncccc23)C1=O [Compound 18, Ethyl 5-((1H-pyrrolo[2,3-b]pyridin-3-yl)methylene)-2-((4-methoxyphenyl)amino)-4-oxo-4,5-dihydrofuran-3-carboxylate] | – | 4.9 nM | 5.1% | 33%
13 | CCOC(=O)C1=C(Nc2ccccc2F)OC(=Cc2c[nH]c3ncccc23)C1=O [Compound 19, Ethyl 5-[(1H-pyrrolo[2,3-b]pyridin-3-yl)methylene]-2-[(2-fluorophenyl)amino]-4-oxo-4,5-dihydrofuran-3-carboxylate] | – | 2.4 nM | 10% | 30%
14 | CCOC(=O)C1=C(Nc2ccc(F)cc2)OC(=Cc2c[nH]c3ncccc23)C1=O [Compound 20, Ethyl 5-((1H-pyrrolo[2,3-b]pyridin-3-yl)methylene)-2-((4-fluorophenyl)amino)-4-oxo-4,5-dihydrofuran-3-carboxylate] | – | 4.3 nM | 25% | 52%
15 | CCOC(=O)C1=C(Nc2ccccc2C)OC(=Cc2c[nH]c3ncccc23)C1=O [Compound 21, Ethyl 5-((1H-pyrrolo[2,3-b]pyridin-3-yl)methylene)-4-oxo-2-(o-tolylamino)-4,5-dihydrofuran-3-carboxylate] | – | 3.8 nM | 24% | 53%
16 | CCOC(=O)C1=C(Nc2ccc(C)cc2)OC(=Cc2c[nH]c3ncccc23)C1=O [Compound 22, Ethyl 5-((1H-pyrrolo[2,3-b]pyridin-3-yl)methylene)-4-oxo-2-(p-tolylamino)-4,5-dihydrofuran-3-carboxylate] | – | 5.9 nM | – | –
17 | CCOC(=O)C1=C(Nc2ccccn2)OC(=Cc2c[nH]c3ncccc23)C1=O [Compound 25, Ethyl 5-((1H-pyrrolo[2,3-b]pyridin-3-yl)methylene)-4-oxo-2-(pyridin-2-ylamino)-4,5-dihydrofuran-3-carboxylate] | – | 30 nM | – | –
18 | CCOC(=O)C1=C(Nc2cccnc2)OC(=Cc2c[nH]c3ncccc23)C1=O [Compound 26, Ethyl 5-((1H-pyrrolo[2,3-b]pyridin-3-yl)methylene)-4-oxo-2-(pyridin-3-ylamino)-4,5-dihydrofuran-3-carboxylate] | – | 8 nM | – | –
19 | CCOC(=O)C1=C(Nc2ccncc2)OC(=Cc2c[nH]c3ncccc23)C1=O [Compound 27, Ethyl 5-((1H-pyrrolo[2,3-b]pyridin-3-yl)methylene)-4-oxo-2-(pyridin-4-ylamino)-4,5-dihydrofuran-3-carboxylate] | – | 3.5 nM | – | –
20 | CCOC(=O)C1=C(Nc2cncnc2)O/C(=C\c2c[nH]c3ncccc23)C1=O [Compound 28, Ethyl 5-((1H-pyrrolo[2,3-b]pyridin-3-yl)methylene)-4-oxo-2-(pyrimidin-5-ylamino)-4,5-dihydrofuran-3-carboxylate] | – | 18 nM | – | –
21 | CCOC(=O)C1=C(Nc2cc[nH]n2)O/C(=C\c2c[nH]c3ncccc23)C1=O [Compound 29, Ethyl 2-((1H-pyrazol-3-yl)amino)-5-((1H-pyrrolo[2,3-b]pyridin-3-yl)methylene)-4-oxo-4,5-dihydrofuran-3-carboxylate] | – | 10 nM | – | –
22 | CCOC(=O)C1=C(Nc2ccc3ncccc3c2)O/C(=C\c2c[nH]c3ncccc23)C1=O [Compound 30, Ethyl 5-((1H-pyrrolo[2,3-b]pyridin-3-yl)methylene)-4-oxo-2-(quinolin-6-ylamino)-4,5-dihydrofuran-3-carboxylate] | – | 36 nM | – | –
23 | CCOC(=O)C1=C(Nc2ccc3cn[nH]c3c2)OC(=Cc2c[nH]c3ncccc23)C1=O [Compound 31, Ethyl 2-((1H-indazol-6-yl)amino)-5-((1H-pyrrolo[2,3-b]pyridin-3-yl)methylene)-4-oxo-4,5-dihydrofuran-3-carboxylate] | – | 4 nM | – | –
24 | CCOC(=O)C1=C(NCc2ccccc2)O/C(=C\c2c[nH]c3ncccc23)C1=O [Compound 32, Ethyl 5-((1H-pyrrolo[2,3-b]pyridin-3-yl)methylene)-2-(benzylamino)-4-oxo-4,5-dihydrofuran-3-carboxylate hydrochloride] | some decrease in potency | 23 nM | – | –
25 | CCOC(=O)C1=C(NCCc2ccccc2)O/C(=C\c2c[nH]c3ncccc23)C1=O [Compound 33, Ethyl 5-((1H-pyrrolo[2,3-b]pyridin-3-yl)methylene)-4-oxo-2-(phenethylamino)-4,5-dihydrofuran-3-carboxylate hydrochloride] | some decrease in potency | 30 nM | – | –
